Values of other authors in patent US20080045551A1, “PHARMACEUTICAL COMBINATION COMPRISING AN ADENOSINE A1 ANTAGONIST AND A RADIOCONTRAST MEDIA” (priority 2006, published 2008).

Test system: radiocontrast media induced nephropathy
Conditions: intensive care patients; Greiner 2005

In the case of `Cn1c(=O)c2[nH]cnc2n(C)c1=O` [theophylline], the “prophylaxis of radiocontrast media induced nephropathy (CIN)” value is given as “prophylactic properties”.
